System: 8XTBD luciferase reporter
Assay: YAP Reporter Assay
Format: cell-based
Conditions: Homo sapiens, HEK-293T; HEK293T cells stably transfected with 8XTBD luciferase reporter and pRLTK; 24-hr incubation; starting from 3 μM, 1:3 dilution, 10 points; read-out: Firefly Luciferase IC50
Description: HEK293T cells stably transfected with 8XTBD luciferase reporter and pRLTK in 384-well plates were treated with the test compounds, starting from 3 μM (final concentration in assay plate), 1:3 dilution, and 10 points in quadruplicates. Post 24-hr incubation with compounds at 37° C. and 5% CO2, cells were lysed and 8XTBD-driven firefly luciferase and control TK-driven renilla luciferase activities were measured using Promega Dual-Luciferase Reporter Assay System.
Reagents: The reagents used for this study are: DMEM: Invitrogen #11960077, Dual-Glo Luciferase Assay System: Promega-E2980, Puromycin Dihydrochloride: Invitrogen-A1113803, 384-well plate: PerkinElmer-6007480, L-GLUTAMINE: Invitrogen-25030164, Hygromycin B: Invitrogen-10687010, and Penicillin-Streptomycin: Merk-TMS-AB2-C
Media: The media used for this assay were: Culture Medium: DMEM+1 ug/mL puromycin+200 ug/mL hygromycin (with 10% FBS+1 mM L-glutamine); and Assay Medium: DMEM (with 10% FBS+1 mM L-glutamine+1×P/S).
Cell Plating: The appropriate media was warmed at 37° C. by water bath: Culture Medium, Assay Medium, 1* D-PBS, 0.05% trypsin-EDTA. The cells were trypsinized after removing all media, then washed with 1* sterile D-PBS and then with 2 ml 0.05% trypsin-EDTA. The cells were then incubated at RT for one minute. Then 10 ml/75 cm2 flask Assay Medium was added to each flask. Using a 10 ml pipette, the cells were then gently resuspended in the media, until the clumps completely disappeared. The cells were then transferred into 50 ml centrifuge tubes and were centrifuged at 800 rpm for 5 mins. The medium was removed and the cells were resuspended with Assay Medium. An aliquot of cells was used to count the cell density (cells/ml). The cell suspension was then diluted with Assay Medium to a concentration of 6×10^4 cells/ml. 50 ul cells suspension was then plated to 384-well plate (PerkinElmer-6007480), 3×10^3 cells/well and the cells were incubated in an incubator at 37° C., 5% CO2.
Compound Treatment: In the afternoon (incubation of the plate with 3-4 hrs), the test compounds were added by Echo, starting from 3 uM (final concentration in the assay plate), 1:3 dilution, 10 points, quadruplicates. The plate was placed at 37° C., 5% CO2 incubator for 24 hrs.
Detection: The Dual-Glo Luciferase Reagent was prepared by transferring the contents of one bottle of Dual-Glo Luciferase Buffer to one bottle of Dual-Glo Luciferase Substrate to create the Dual-Glo Luciferase Reagent. Mixing was performed by inversion until the substrate was thoroughly dissolved. After mixing, the reagent was aliquoted into 15 ml tubes. In the afternoon (24 hrs post compound treatment), the DMEM+ medium in the 384 well plates were aspirated by Microplate Washer.
Measuring firefly luciferase activity: 20 ul Dual-Glo Luciferase Reagent was added to the 384-well plates. The plates were protected from light to prevent interference with the assay. The plates were shaken for 1 min followed centrifuging plates at 1000 rpm for 30 seconds. After waiting at least 10 minutes, the firefly luminescence was measured by Envision.
Measuring renilla luciferase activity: 20 ul Stop-Glo Reagent was added to the 384-well plates. The plates were shaken for 1 min and then centrifuged at 1000 rpm for 30 seconds. After waiting at least 10 minutes, the renilla luminescence was measured by Envision.
Compound IC50 and maximum inhibition on the firefly luciferase and renilla luciferase activities were reported separately.

IC50 [nM] | Structure (SMILES)
≤ 100 | CNS(=O)(=O)c1ccc(NC2CCCCC2)c(-c2cn(C)cn2)c1 [Compound 82, 4-(cyclohexylamino)-N-methyl-3-(1-methyl-1H-imidazol-4-yl)benzenesulfonamide]
> 3000 | CNS(=O)(=O)c1ccc(NC2CCCCC2)c(-c2nnn(C3CN(C(=O)OC(C)(C)C)C3)n2)c1 [Compound 25, tert-butyl 3-(5-(2-(cyclohexylamino)-5-(N-methylsulfamoyl)phenyl)-2H-tetrazol-2-yl)azetidine-1-carboxylate]
≤ 100 | CNS(=O)(=O)c1ccc(N[C@H]2CC[C@@H](C(F)(F)F)CC2)c(-c2cn(C)cn2)c1 [Compound 150, N-methyl-3-(1-methyl-1H-imidazol-4-yl)-4-(((1s,4s)-4-(trifluoromethyl)cyclohexyl)amino) benzenesulfonamide]
1000 to 3000 | CNS(=O)(=O)c1ccc(Nc2ccc(Oc3ccccc3)cc2)c(-c2nnn(C)n2)c1 [Compound 130, N-methyl-3-(2-methyltetrazol-5-yl)-4-(4-phenoxyanilino) benzenesulfonamide]
100 to 1000 | CNS(=O)(=O)c1ccc(Nc2cccc(Oc3ccccc3)c2)c(-c2nnn(C)n2)c1 [Compound 134, N-methyl-3-(2-methyltetrazol-5-yl)-4-(3-phenoxyanilino)benzenesulfonamide]
100 to 1000 | CNS(=O)(=O)c1ccc(NC2CCCCC2)c(-c2nnn(CC(C)C)n2)c1 [Compound 27, 4-(cyclohexylamino)-3-(2-isobutyl-2H-tetrazol-5-yl)-N-methylbenzenesulfonamide]
≤ 100 | CNS(=O)(=O)c1ccc(NC2CCCCC2)c(-c2cn(C3CC3)cn2)c1 [Compound 111, 4-(cyclohexylamino)-3-(1-cyclopropyl-1H-imidazol-4-yl)-N-methylbenzenesulfonamide]
> 3000 | CNS(=O)(=O)c1ccc(NC2CCCCC2)c(-c2cncnc2)c1 [Compound 55, 4-(cyclohexylamino)-N-methyl-3-(pyrimidin-5-yl)benzenesulfonamide]
> 3000 | CNS(=O)(=O)c1ccc(NC2CCCCC2)c(-c2nnn(C3CCN(C(=O)OC(C)(C)C)CC3)n2)c1 [Compound 28, tert-butyl 4-(5-(2-(cyclohexylamino)-5-(N-methylsulfamoyl)phenyl)-2H-tetrazol-2-yl)piperidine-1-carboxylate]
≤ 100 | CNS(=O)(=O)c1ccc(NC2CCCCC2)c(-c2nnc(C)o2)c1 [Compound 105, 4-(cyclohexylamino)-N-methyl-3-(5-methyl-1,3,4-oxadiazol-2-yl)benzenesulfonamide]
≤ 100 | Cc1nc(-c2cc(S(C)(=O)=O)ccc2NC2CCCCC2)no1 [Compound 3, N-cyclohexyl-2-(5-methyl-1,2,4-oxadiazol-3-yl)-4-(methylsulfonyl)aniline]
≤ 100 | CNS(=O)(=O)c1ccc(Nc2ccc(C(F)(F)F)c(Cl)c2)c(-c2cn(C)cn2)c1 [Compound 148, 4-[3-Chloro-4-(trifluoromethyl)anilino]-N-methyl-3-(1-methylimidazol-4-yl)benzenesulfonamide]
> 3000 | CNS(=O)(=O)c1ccc(NC2CCCCC2)c(-c2nnn(C3CCCN(C(C)C)C3)n2)c1 (stereo not shown) [Compound 61, 4-(cyclohexylamino)-3-(2-(1-isopropylpiperidin-3-yl)-2H-tetrazol-5-yl)-N-methylbenzenesulfonamide]
> 3000 | CNS(=O)(=O)c1ccc(NC2CCCCC2)c(-c2nnn(C3CN(S(C)(=O)=O)C3)n2)c1 [Compound 50, 4-(cyclohexylamino)-N-methyl-3-(2-(1-(methylsulfonyl)azetidin-3-yl)-2H-tetrazol-5-yl)benzenesulfonamide]
> 3000 | CNS(=O)(=O)c1ccc(NC2CCCCC2)c(-c2nnn(C3CCN(S(C)(=O)=O)C3)n2)c1 (stereo not shown) [Compound 43, 4-(cyclohexylamino)-N-methyl-3-(2-(1-(methylsulfonyl)pyrrolidin-3-yl)-2H-tetrazol-5-yl)benzenesulfonamide]
≤ 100 | CNS(=O)(=O)c1ccc(NC2CCCCC2)c(-c2ncccc2F)c1 [Compound 79, 4-(cyclohexylamino)-3-(3-fluoropyridin-2-yl)-N-methylbenzenesulfonamide]

IC50 [nM] | Structure (SMILES)
> 3000 | CNS(=O)(=O)c1ccc(NC2CCCCC2)c(-c2ncccc2C)c1 [Compound 78, 4-(cyclohexylamino)-N-methyl-3-(3-methylpyridin-2-yl)benzenesulfonamide]
≤ 100 | CNS(=O)(=O)c1ccc(NC2CCCCC2)c(-c2nnn(C(C)C)n2)c1 [Compound 26, 4-(cyclohexylamino)-3-(2-isopropyl-2H-tetrazol-5-yl)-N-methylbenzenesulfonamide]
≤ 100 | CNS(=O)(=O)c1ccc(Nc2cccc(SC(F)(F)F)c2)c(-c2cn(C)cn2)c1 [Compound 141, N-methyl-3-(1-methylimidazol-4-yl)-4-[3-(trifluoromethylsulfanyl)anilino] benzenesulfonamide]
≤ 100 | CNS(=O)(=O)c1ccc(NC2CCCCC2)c(-c2nnn(Cc3ccccc3F)n2)c1 [Compound 19, 4-(cyclohexylamino)-3-(2-(2-fluorobenzyl)-2H-tetrazol-5-yl)-N-methylbenzenesulfonamide]
≤ 100 | CNS(=O)(=O)c1ccc(Nc2ccc(Cl)c(C(F)(F)F)c2)c(-c2cn(C)cn2)c1 [Compound 147, 4-[4-Chloro-3-(trifluoromethyl)anilino]-N-methyl-3-(1-methylimidazol-4-yl)benzenesulfonamide]
≤ 100 | CNS(=O)(=O)c1ccc(NC2CCCCC2)c(-c2ccccn2)c1 [Compound 64, 4-(cyclohexylamino)-N-methyl-3-(pyridin-2-yl)benzenesulfonamide]
> 3000 | CNS(=O)(=O)c1ccc(Nc2cccc(C(F)(F)F)c2)c(-c2nnnn2C)c1 [Compound 97, N-methyl-3-(1-methyl-1H-tetrazol-5-yl)-4-((3-(trifluoromethyl)phenyl)amino)benzenesulfonamide]
> 3000 | CNS(=O)(=O)c1ccc(NC2CCCCC2)c(-c2nnn(C3CC3)n2)c1 [Compound 71, 4-(cyclohexylamino)-3-(2-cyclopropyl-2H-tetrazol-5-yl)-N-methylbenzene sulfonamide]
100 to 1000 | CNS(=O)(=O)c1ccc(NC2CCCCC2)c(-c2nnn(-c3ccccc3F)n2)c1 [Compound 23, 4-(cyclohexylamino)-3-(2-(2-fluorophenyl)-2H-tetrazol-5-yl)-N-methylbenzenesulfonamide]
> 3000 | CS(=O)(=O)c1ccc(NC2CCCCC2)c(-n2ccnc2)c1 [Compound 11, N-cyclohexyl-2-(1H-imidazol-1-yl)-4-(methylsulfonyl)aniline]
> 3000 | CS(=O)(=O)c1ccc(NC2CCCCC2)c(-n2ccnn2)c1 [Compound 9, N-cyclohexyl-4-(methylsulfonyl)-2-(1H-1,2,3-triazol-1-yl)aniline]
100 to 1000 | CNS(=O)(=O)c1ccc(NC2CCCCC2)c(-c2nnn(CCO)n2)c1 [Compound 44, 4-(cyclohexylamino)-3-(2-(2-hydroxyethyl)-2H-tetrazol-5-yl)-N-methylbenzenesulfonamide]
≤ 100 | CNS(=O)(=O)c1ccc(Nc2cccc(C(F)(F)F)c2)c(-c2nnn(Cc3ccccc3F)n2)c1 [Compound 136, 3-[2-[(2-Fluorophenyl)methyl]tetrazol-5-yl]-N-methyl-4-[3-(trifluoromethyl)anilino]benzene-sulfonamide]
1000 to 3000 | CNc1cccc(-c2cc(S(=O)(=O)NC)ccc2NC2CCCCC2)n1 [Compound 85, 4-(cyclohexylamino)-N-methyl-3-(6-(methylamino)pyridin-2-yl)benzenesulfonamide]
> 3000 | CNS(=O)(=O)c1ccc(NC2CCCCC2)c(-c2nnn(C3CCNCC3)n2)c1 [Compound 30, 4-(cyclohexylamino)-N-methyl-3-(2-(piperidin-4-yl)-2H-tetrazol-5-yl)benzenesulfonamide]

From US11192865B2, “Benzosulfonyl compounds” (Vivace Therapeutics, Inc., priority 2017, dated 2021)
